Reference: the NIST ThermoML archive (doi:10.1016/j.jct.2010.10.016)

Assay: relative permittivity at various frequencies (dimensionless); xn = mol fraction of the nth substance listed
Conditions: 101 kPa, Liquid, Frequency=3 MHz, AC method

CCCCOCCO [2-butoxyethan-1-ol] + C[N+](=O)[O-]
relative permittivity
Conditions | 293.15 K | 298.15 K | 303.15 K | 308.15 K | 313.15 K
x2 = 0 | 9.78 | 9.35 | 8.88 | 8.39 | 7.91
x2 = 0.05 | 12.57 | 11.95 | 11.28 | 10.61 | 9.96
x2 = 0.0999 | 14.98 | 14.28 | 13.54 | 12.78 | 12.04
x2 = 0.2 | 19.71 | 18.87 | 18 | 17.16 | 16.23
x2 = 0.3 | 24.36 | 23.34 | 22.34 | 21.34 | 20.28
x2 = 0.4 | 28.77 | 27.63 | 26.37 | 25.27 | 24.13
x2 = 0.5 | 32.64 | 31.38 | 29.98 | 28.79 | 27.65
x2 = 0.6 | 35.72 | 34.44 | 32.99 | 31.85 | 30.75
x2 = 0.7001 | 38.28 | 36.93 | 35.47 | 34.31 | 33.16
x2 = 0.8 | 40.28 | 38.93 | 37.36 | 36 | 34.68
x2 = 0.9005 | 40.93 | 39.67 | 37.93 | 36.51 | 35.07
x2 = 0.95 | 39.91 | 38.78 | 37.3 | 36.07 | 34.84

C[N+](=O)[O-] [nitromethane] + COCCO
relative permittivity
Conditions | 293.15 K | 298.15 K | 303.15 K | 308.15 K | 313.15 K
x1 = 0.05 | 19.49 | 18.95 | 18.48 | 17.81 | 17.21
x1 = 0.0998 | 21.49 | 20.81 | 20.26 | 19.57 | 18.85
x1 = 0.2 | 25.34 | 24.57 | 23.89 | 23.11 | 22.12
x1 = 0.3 | 29.02 | 28.08 | 27.27 | 26.43 | 25.3
x1 = 0.4 | 32.43 | 31.42 | 30.47 | 29.45 | 28.29
x1 = 0.5 | 35.32 | 34.24 | 33.22 | 32.16 | 31.09
x1 = 0.6 | 37.67 | 36.51 | 35.49 | 34.47 | 33.47
x1 = 0.7 | 39.53 | 38.31 | 37.26 | 36.18 | 35.12
x1 = 0.8002 | 40.88 | 39.53 | 38.38 | 37.08 | 35.78
x1 = 0.8999 | 40.91 | 39.5 | 38.23 | 36.88 | 35.27
x1 = 0.9503 | 39.82 | 38.54 | 37.28 | 36.1 | 34.7
x1 = 1 | 37.31 | 36.52 | 35.66 | 34.92 | 34.09
